According to the NIST ThermoML archive (doi:10.1016/j.jct.2017.08.004):

Assay: molar heat capacity at constant pressure
Details: 101.33 kPa, Crystal

OC[C@H](O)C(O)[C@@H](O)CO [L-(-)-arabitol]
Details	molar heat capacity at constant pressure [J/K/mol]
1 K, relaxation calorimetry	0.0009071
1.925 K, relaxation calorimetry	0.00486
2 K, relaxation calorimetry	0.00537
2.126 K, relaxation calorimetry	0.006333
2.35 K, relaxation calorimetry	0.008531
2.603 K, relaxation calorimetry	0.01139
2.89 K, relaxation calorimetry	0.01551
3 K, relaxation calorimetry	0.01737
3.204 K, relaxation calorimetry	0.02118
3.551 K, relaxation calorimetry	0.02864
3.938 K, relaxation calorimetry	0.03916
4 K, relaxation calorimetry	0.04172
4.366 K, relaxation calorimetry	0.05484
4.845 K, relaxation calorimetry	0.07705
5 K, relaxation calorimetry	0.08452
5.374 K, relaxation calorimetry	0.1069
5.962 K, relaxation calorimetry	0.1505
6 K, relaxation calorimetry	0.1535
6.615 K, relaxation calorimetry	0.2138
7 K, relaxation calorimetry	0.26
7.345 K, relaxation calorimetry	0.3087
8 K, relaxation calorimetry	0.4176
8.151 K, relaxation calorimetry	0.4472
9 K, relaxation calorimetry	0.6348
9.046 K, relaxation calorimetry	0.6445
10 K, relaxation calorimetry	0.9169
10.12 K, relaxation calorimetry	0.9515
11.21 K, relaxation calorimetry	1.346
12.43 K, relaxation calorimetry	1.885
13.79 K, relaxation calorimetry	2.589
15 K, relaxation calorimetry	3.316
15.3 K, relaxation calorimetry	3.507
16.99 K, relaxation calorimetry	4.683
18.86 K, relaxation calorimetry	6.145
20 K, relaxation calorimetry	7.063
21 K, relaxation calorimetry	7.93
23.34 K, relaxation calorimetry	10
25 K, relaxation calorimetry	11.59
25.89 K, relaxation calorimetry	12.41
28.74 K, relaxation calorimetry	15.2
30 K, relaxation calorimetry	16.48
31.91 K, relaxation calorimetry	18.4
35 K, relaxation calorimetry	21.5
35.44 K, relaxation calorimetry	21.96
39.34 K, relaxation calorimetry	25.96
40 K, relaxation calorimetry	26.56
43.67 K, relaxation calorimetry	30.28
45 K, relaxation calorimetry	31.57
48.47 K, relaxation calorimetry	34.84
50 K, relaxation calorimetry	36.42
53.79 K, relaxation calorimetry	39.93
55 K, relaxation calorimetry	41.06
59.71 K, relaxation calorimetry	45.44
60 K, relaxation calorimetry	45.6
65 K, relaxation calorimetry	50.22
66.3 K, relaxation calorimetry	51.38
70 K, relaxation calorimetry	54.55
73.59 K, relaxation calorimetry	57.52
75 K, relaxation calorimetry	58.73
80 K, relaxation calorimetry	62.81
81.71 K, relaxation calorimetry	64.34
85 K, relaxation calorimetry	66.8
90 K, relaxation calorimetry	70.7
90.67 K, relaxation calorimetry	71.56
95 K, relaxation calorimetry	74.53
100 K, relaxation calorimetry	78.28
100.62 K, relaxation calorimetry	78.32
110 K, relaxation calorimetry	85.55
110.77 K, relaxation calorimetry	85.86
120 K, relaxation calorimetry	92.52
120.75 K, relaxation calorimetry	93.29
130 K, relaxation calorimetry	99.22
130.83 K, relaxation calorimetry	99.89
140 K, relaxation calorimetry	105.69
141 K, relaxation calorimetry	106.35
150 K, relaxation calorimetry	111.98
151.08 K, relaxation calorimetry	112.59
160 K, relaxation calorimetry	118.13
161.19 K, relaxation calorimetry	118.71
170 K, relaxation calorimetry	124.19
171.26 K, relaxation calorimetry	124.81
180 K, relaxation calorimetry	130.18
181.32 K, relaxation calorimetry	131.15
188.15 K, Small sample (50 mg) DSC	129.04
189.15 K, Small sample (50 mg) DSC	130.57
190 K, relaxation calorimetry	136.16
190.15 K, Small sample (50 mg) DSC	131.98
191.15 K, Small sample (50 mg) DSC	132.97
191.4 K, relaxation calorimetry	137.23
192.15 K, Small sample (50 mg) DSC	133.65
193.15 K, Small sample (50 mg) DSC	134.27
194.15 K, Small sample (50 mg) DSC	135.12
195.15 K, Small sample (50 mg) DSC	135.91
196.15 K, Small sample (50 mg) DSC	136.66
197.15 K, Small sample (50 mg) DSC	137.42
198.15 K, Small sample (50 mg) DSC	138.16
199.15 K, Small sample (50 mg) DSC	138.8
200 K, relaxation calorimetry	142.15
200.15 K, Small sample (50 mg) DSC	139.49
201.15 K, Small sample (50 mg) DSC	140.3
201.57 K, relaxation calorimetry	142.67
202.15 K, Small sample (50 mg) DSC	141.06
203.15 K, Small sample (50 mg) DSC	141.64
204.15 K, Small sample (50 mg) DSC	142.39
205.15 K, Small sample (50 mg) DSC	143.02
206.15 K, Small sample (50 mg) DSC	143.74
207.15 K, Small sample (50 mg) DSC	144.43
208.15 K, Small sample (50 mg) DSC	145.06
209.15 K, Small sample (50 mg) DSC	145.72
210 K, relaxation calorimetry	148.19
210.15 K, Small sample (50 mg) DSC	146.38
211.15 K, Small sample (50 mg) DSC	147.05
211.68 K, relaxation calorimetry	149.03
212.15 K, Small sample (50 mg) DSC	147.72
213.15 K, Small sample (50 mg) DSC	148.33
214.15 K, Small sample (50 mg) DSC	149.06
215.15 K, Small sample (50 mg) DSC	149.6
216.15 K, Small sample (50 mg) DSC	150.38
217.15 K, Small sample (50 mg) DSC	151.13
218.15 K, Small sample (50 mg) DSC	152.05
219.15 K, Small sample (50 mg) DSC	152.76
220 K, relaxation calorimetry	154.3
220.15 K, Small sample (50 mg) DSC	153.39
221.15 K, Small sample (50 mg) DSC	153.99
221.77 K, relaxation calorimetry	155.91
222.15 K, Small sample (50 mg) DSC	154.72
223.15 K, Small sample (50 mg) DSC	155.35
224.15 K, Small sample (50 mg) DSC	155.94
225.15 K, Small sample (50 mg) DSC	156.64
226.15 K, Small sample (50 mg) DSC	157.32
227.15 K, Small sample (50 mg) DSC	157.87
228.15 K, Small sample (50 mg) DSC	158.58
229.15 K, Small sample (50 mg) DSC	159.08
230 K, relaxation calorimetry	160.49
230.15 K, Small sample (50 mg) DSC	159.71
231.15 K, Small sample (50 mg) DSC	160.4
231.87 K, relaxation calorimetry	161.72
232.15 K, Small sample (50 mg) DSC	160.98
233.15 K, Small sample (50 mg) DSC	161.67
234.15 K, Small sample (50 mg) DSC	162.2
235.15 K, Small sample (50 mg) DSC	162.87
236.15 K, Small sample (50 mg) DSC	163.51
237.15 K, Small sample (50 mg) DSC	164.14
238.15 K, Small sample (50 mg) DSC	164.86
239.15 K, Small sample (50 mg) DSC	165.4
240 K, relaxation calorimetry	166.8
240.15 K, Small sample (50 mg) DSC	166.04
241.15 K, Small sample (50 mg) DSC	166.73
241.87 K, relaxation calorimetry	168.05
242.15 K, Small sample (50 mg) DSC	167.44
243.15 K, Small sample (50 mg) DSC	168.16
